Data set [1] is described as follows: Metabolic stability in dog liver microsomes assessed as compound remaining at 1 hr. The format is ADME, Canis lupus familiaris, Microsome. The conditions noted are these: read-out: Stability. On the technique in general: Microsomes from liver hold many membrane-bound enzymes, among them those of drug oxidation.
For data set [2], the species on record is Mus musculus. Put plainly: animal or person. The conditions noted are these: C57BL/6J, po, 1 h, read-out: INH.
Description: In vivo inhibition of DPP4 in C57BL/6J mouse at 3 mg/kg, po measured after 1 hr
Data set [3] can be described thus: Solubility of the compound at pH 1-9. The conditions noted are these: buffer. The format is physicochemical.
The nature of data set [4]: Protein binding in rat. The format is ADME, organism-based. The conditions noted are these: plasma, read-out: PB (converted).
A short description of data set [5]: Stability in mouse plasma assessed as compound remaining at 1 hr. The conditions noted are these: read-out: Stability. Format: ADME, cell-free.
For data set [6], the species on record is Mus musculus. Nature of the data set: animal or person. The conditions noted are these: C57BL/6J, po, 2 h.
Description: Antidiabetic activity in po dosed C57BL/6J mouse assessed as reduction in glucose AUC administered prior to glucose challenge measured up to 120 mins
Data set [7] in a line: Cmax in rat at 10 mg/kg, po. Format: ADME, organism-based. Details: dose 10 mg/kg, route oral. The conditions noted are these: in vivo.
Data set [8] in a line: Stability in human plasma assessed as compound remaining at 1 hr. Format: ADME, cell-free. The conditions noted are these: read-out: Stability.
The species named for data set [9] is Rattus norvegicus. Put plainly: animal or person. The conditions noted are these: Sprague-Dawley, Plasma, po, 24 h, read-out: INH.
Description: In vivo inhibition of DPP4 in Sprague-Dawley rat plasma at 10 mg/kg, po administered as single dose measured after 24 hrs
For data set [10], the species on record is Mus musculus. Put plainly: animal or person. To be noted: C57BL/6J, po, 1 h, read-out: INH. This is another data set of the same source.
Description: In vivo inhibition of DPP4 in C57BL/6J mouse at 1 mg/kg, po measured after 1 hr
Data set [11] can be described thus: Metabolic stability in human liver microsomes assessed as compound remaining at 1 hr. Format: ADME, Microsome. The conditions noted are these: read-out: Stability.
Data set [12] is filed under the species Rattus norvegicus. Put plainly: animal or person. To be noted: Sprague-Dawley, Plasma, po, 6 h, read-out: INH.
Description: In vivo inhibition of DPP4 in Sprague-Dawley rat plasma at 10 mg/kg, po administered as single dose measured up to 6 hrs
Data set [13] can be described thus: Protein binding in mouse. The format is ADME, organism-based. The conditions noted are these: plasma, read-out: PB (converted).
The species named for data set [14] is Mus musculus. Nature of the data set: animal or person. The conditions noted are these: C57BL/6J, po, 1 h, read-out: INH. The source holds these as a separate data set.
Description: In vivo inhibition of DPP4 in C57BL/6J mouse at 10 mg/kg, po measured after 1 hr
Data set [15] can be described thus: Protein binding in human. The format is ADME, organism-based. The conditions noted are these: plasma, read-out: PB (converted).
The target in data set [16] is T1, Cytochrome P450 3A4 (Homo sapiens, UniProt P08684). Put plainly: Induction of CYP3A4 at 50 uM. The format is ADME.
T1 sequence (P08684 whole entry): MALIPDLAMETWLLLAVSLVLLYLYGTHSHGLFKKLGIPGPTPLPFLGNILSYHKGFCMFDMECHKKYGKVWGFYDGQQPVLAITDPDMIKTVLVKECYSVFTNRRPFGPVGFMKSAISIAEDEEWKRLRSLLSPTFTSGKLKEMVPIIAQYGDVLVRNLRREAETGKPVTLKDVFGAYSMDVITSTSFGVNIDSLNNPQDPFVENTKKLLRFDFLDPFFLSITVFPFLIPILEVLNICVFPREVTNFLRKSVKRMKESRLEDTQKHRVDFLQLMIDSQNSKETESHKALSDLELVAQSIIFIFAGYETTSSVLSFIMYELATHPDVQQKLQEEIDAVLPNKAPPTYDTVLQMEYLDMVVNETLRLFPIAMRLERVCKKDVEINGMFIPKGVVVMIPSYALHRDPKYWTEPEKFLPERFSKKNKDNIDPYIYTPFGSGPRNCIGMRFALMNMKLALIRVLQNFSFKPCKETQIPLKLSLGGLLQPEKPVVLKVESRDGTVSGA
Data set [17] in a line: Oral bioavailability in rat at 10 mg/kg. Format: ADME, organism-based. The conditions noted are these: in vivo.
Data set [18] in a line: Metabolic stability in rat liver microsomes assessed as compound remaining at 1 hr. To be noted: read-out: Stability. Format: ADME, Microsome.
Data set [19] is described as follows: Stability in rat plasma assessed as compound remaining at 1 hr. The format is ADME, cell-free. The conditions noted are these: read-out: Stability.
Data set [20] can be described thus: Metabolic stability in mouse liver microsomes assessed as compound remaining at 1 hr. Format: ADME, Microsome. To be noted: read-out: Stability.
A short description of data set [21]: Half life in rat at 10 mg/kg, po. To be noted: in vivo. Format: ADME, organism-based. Details: dose 10 mg/kg, route oral.
The species entered for data set [22] is Mus musculus. Put plainly: animal or person. The conditions noted are these: C57BL/6J, Plasma, po, 1 h, read-out: INH.
Description: In vivo inhibition of DPP4 in C57BL/6J mouse plasma at 3 mg/kg, po measured after 1 hr
The species named for data set [23] is Mus musculus. Nature of the data set: animal or person. The conditions noted are these: C57BL/6J, Plasma, po, 1 h.
Description: In vivo inhibition of DPP4 in po dosed C57BL/6J mouse plasma measured after 1 hr
Data set [24] is filed under the species Mus musculus. Put plainly: animal or person. To be noted: C57BL/6J, Plasma, po, 1 h, read-out: INH. This is another data set of the same source.
Description: In vivo inhibition of DPP4 in C57BL/6J mouse plasma at 1 mg/kg, po measured after 1 hr
A further data set deals with Dipeptidyl peptidase 4 (Mus musculus, UniProt P28843). Nature of the data set: Inhibition of mouse DPP4.
Chain of Dipeptidyl peptidase 4 (P28843 whole entry): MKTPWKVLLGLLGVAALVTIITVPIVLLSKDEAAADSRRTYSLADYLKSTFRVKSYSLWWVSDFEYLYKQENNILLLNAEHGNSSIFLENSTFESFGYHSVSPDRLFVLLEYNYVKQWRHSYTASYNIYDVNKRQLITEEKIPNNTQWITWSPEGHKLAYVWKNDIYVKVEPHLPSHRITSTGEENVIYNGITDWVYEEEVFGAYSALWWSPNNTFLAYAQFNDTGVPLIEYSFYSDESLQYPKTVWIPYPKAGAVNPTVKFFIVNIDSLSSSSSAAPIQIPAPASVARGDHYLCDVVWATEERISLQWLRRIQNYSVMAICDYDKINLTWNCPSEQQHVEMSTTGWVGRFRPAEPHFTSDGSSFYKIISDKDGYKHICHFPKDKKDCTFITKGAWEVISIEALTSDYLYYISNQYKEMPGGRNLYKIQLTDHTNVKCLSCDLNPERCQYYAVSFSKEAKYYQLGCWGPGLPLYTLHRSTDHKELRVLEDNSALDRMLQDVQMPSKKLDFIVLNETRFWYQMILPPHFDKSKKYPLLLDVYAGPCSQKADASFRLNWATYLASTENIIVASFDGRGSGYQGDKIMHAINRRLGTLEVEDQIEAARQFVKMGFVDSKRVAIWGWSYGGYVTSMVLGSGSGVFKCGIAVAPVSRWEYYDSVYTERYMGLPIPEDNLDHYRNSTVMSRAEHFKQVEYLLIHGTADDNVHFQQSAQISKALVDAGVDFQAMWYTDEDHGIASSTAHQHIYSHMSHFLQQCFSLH
Data set [25] concerns the target T2, CYP3A4 (Homo sapiens, UniProt P08684). Put plainly: Inhibition of CYP3A4 at 1 uM. The format is ADME.
The species named for data set [26] is Mus musculus. Nature of the data set: animal or person. The conditions noted are these: C57BL/6J, Plasma, po, 1 h, read-out: INH. The source holds these as a separate data set.
Description: In vivo inhibition of DPP4 in C57BL/6J mouse plasma at 0.3 mg/kg, po measured after 1 hr
Data set [27] concerns the target T2, CYP3A4. Nature of the data set: Inhibition of CYP3A4 at 3 uM. Format: ADME.
The target in data set [28] is T2, CYP3A4. Put plainly: Inhibition of CYP3A4 at 10 uM. Format: ADME.
The species entered for data set [29] is Mus musculus. Put plainly: animal or person. To be noted: C57BL/6J, Plasma, po, 1 h, read-out: INH. The source holds these as a separate data set.
Description: In vivo inhibition of DPP4 in C57BL/6J mouse plasma at 10 mg/kg, po measured after 1 hr
The target in data set [30] is T1, Cytochrome P450 3A4. Put plainly: Inhibition of CYP3A4. Format: ADME.

pIC50: −log10 of the molar value. Some results are limits rather than exact numbers.

The solubility is the concentration that dissolves in the medium under given conditions. The Cmax is the peak of the concentration-time curve. Usually bioavailability stands for the share of a dose that reaches the circulation, judged against a reference dose that is usually intravenous. A lower bioavailability goes with little systemic uptake. By half-life is commonly meant the time in which the quantity being followed falls by half. Higher therefore signals slow loss. By ED50 is commonly meant the midpoint of the dose-response relation. A lower ED50 goes with greater potency. Usually pIC50 stands for the negative decadic logarithm of the IC50, by convention in mol/L. Low values mean a high IC50, high ones a low IC50. A word on the inhibition: it is how much of the control response was suppressed. A lower inhibition goes with a response near the control.

T2 sequence (P08684 whole entry): as the sequence (P08684 whole entry) above

For `N[C@@H](CC(=O)N1CCN(C(=O)c2ccccn2)CC1)Cc1cc(F)c(F)cc1F`, the remaining at 1 h in [1] was 88%; in data set [5], > 97%; in data set [8] it was 97%; in [11], 89%; in data set [18] it was 85%; in [19], > 97%. Moreover, the remaining at 1 h in data set [20] amounted to 79%. The inhibition in vivo at 3 mg/kg in the data set filed under Mus musculus [2] is 59.1%. For the same compound, in data set [3], the solubility is > 10000 µg/mL. Further, the results for the fraction unbound in data set [4], in [13] and in data set [15] were 0.729, 0.557 and 0.497, respectively. For the same compound, the ED30 in the data set filed under Mus musculus [6] turned out to be 0.38 mg/kg. For the same compound, the Cmax in data set [7] turned out to be 2030 ng/mL. Also, the figures for the inhibition in vivo at 10 mg/kg in the data set listed under Rattus norvegicus [9], in the data set filed under Rattus norvegicus [12] and in the data set listed under Mus musculus [14] were 30%, 60% and 84.6%, respectively. For the same compound, the inhibition in vivo at 1 mg/kg in the data set filed under Mus musculus [10] is 32.5%. For the same compound, on Cytochrome P450 3A4 [16], the Activity is reported as < 10%. Also, the bioavailability in [17] is 65.3%. The compound also gave a half-life in data set [21] of 4.74 h.
`N[C@@H](CC(=O)N1CCN(c2ccc(F)cc2F)CC1)Cc1cc(F)c(F)cc1F`: in the data set listed under Mus musculus [22], the inhibition in vivo at 3 mg/kg amounted to 68.6%. Moreover, in the data set filed under Mus musculus [23], the ED50 is 0.87 mg/kg. Besides, the inhibition in vivo at 1 mg/kg in the data set listed under Mus musculus [24] is 52.2%. Moreover, the pIC50 against Dipeptidyl peptidase 4 is 7.03. In addition, the inhibition at 1 µM at CYP3A4 [25] came to 81.5%. Moreover, the inhibition in vivo at 0.3 mg/kg in the data set listed under Mus musculus [26] turned out to be 33.8%. At CYP3A4 [27], this compound displayed an inhibition at 3 µM of 94%. In addition, the inhibition at 10 µM at CYP3A4 [28] stood at 100%. For the same compound, the inhibition in vivo at 10 mg/kg in the data set filed under Mus musculus [29] is 85.9%.
`N[C@@H](CC(=O)N1CCN(C(=O)c2ccc(OC(F)(F)F)cc2)CC1)Cc1cc(F)c(F)cc1F` gave a pIC50 on Cytochrome P450 3A4 [30] of 6.00.
`N[C@@H](CC(=O)N1CCN(C(=O)c2ccc(C(F)(F)F)cc2)CC1)Cc1cc(F)c(F)cc1F`: on Cytochrome P450 3A4 [30], the pIC50 is 6.00.
Turning to `N[C@@H](CC(=O)N1CCN(C(=O)c2ccc(O)cc2)CC1)Cc1cc(F)c(F)cc1F`, the pIC50 against Cytochrome P450 3A4 [30] is 6.00.
Still for that read-out and setting: under `N[C@@H](CC(=O)N1CCN(C(=O)c2cccc(C(=O)O)c2)CC1)Cc1cc(F)c(F)cc1F` stands 6.00; under `N[C@@H](CC(=O)N1CCN(C(=O)c2ccc(S(N)(=O)=O)cc2)CC1)Cc1cc(F)c(F)cc1F`, 6.00; under `N[C@@H](CC(=O)N1CCN(C(=O)c2ccccc2)CC1)Cc1cc(F)c(F)cc1F`, 6.00.
Still for that read-out and setting: under `N[C@@H](CC(=O)N1CCN(C(=O)c2ccc(C(=O)O)cc2)CC1)Cc1cc(F)c(F)cc1F` stands 6.00; under `CN1CCN(c2ccc(C(=O)N3CCN(C(=O)C[C@H](N)Cc4cc(F)c(F)cc4F)CC3)cc2)CC1`, 6.00.
Same read-out and setting: next, `N[C@@H](CC(=O)N1CCN(C(=O)c2ccc(F)cc2)CC1)Cc1cc(F)c(F)cc1F`: 6.00.
